Test results: ChEMBL document CHEMBL2429822, “Imaging probes of tau pathology” (ACS Med Chem Lett, 2013)
Calls of active or inactive are those of the source. No cut-off for these calls is given here.

Experiments:
[1] = molecular target: Amyloid-beta precursor protein (Homo sapiens) (UniProt P05067); assay: Binding affinity to human amyloid-beta plaques at 10 uM by fluorescence microscopy
[2] = molecular target: Amyloid-beta precursor protein (Homo sapiens) (UniProt P05067); assay: Binding affinity to human amyloid-beta plaques at 1 uM by fluorescence microscopy
[3] = molecular target: Microtubule-associated protein tau (Homo sapiens) (UniProt P10636); assay: Binding affinity to human tau associated NFTs at 10 uM by fluorescence microscopy
Microtubule-associated protein tau (Homo sapiens), sequence (P10636 whole entry): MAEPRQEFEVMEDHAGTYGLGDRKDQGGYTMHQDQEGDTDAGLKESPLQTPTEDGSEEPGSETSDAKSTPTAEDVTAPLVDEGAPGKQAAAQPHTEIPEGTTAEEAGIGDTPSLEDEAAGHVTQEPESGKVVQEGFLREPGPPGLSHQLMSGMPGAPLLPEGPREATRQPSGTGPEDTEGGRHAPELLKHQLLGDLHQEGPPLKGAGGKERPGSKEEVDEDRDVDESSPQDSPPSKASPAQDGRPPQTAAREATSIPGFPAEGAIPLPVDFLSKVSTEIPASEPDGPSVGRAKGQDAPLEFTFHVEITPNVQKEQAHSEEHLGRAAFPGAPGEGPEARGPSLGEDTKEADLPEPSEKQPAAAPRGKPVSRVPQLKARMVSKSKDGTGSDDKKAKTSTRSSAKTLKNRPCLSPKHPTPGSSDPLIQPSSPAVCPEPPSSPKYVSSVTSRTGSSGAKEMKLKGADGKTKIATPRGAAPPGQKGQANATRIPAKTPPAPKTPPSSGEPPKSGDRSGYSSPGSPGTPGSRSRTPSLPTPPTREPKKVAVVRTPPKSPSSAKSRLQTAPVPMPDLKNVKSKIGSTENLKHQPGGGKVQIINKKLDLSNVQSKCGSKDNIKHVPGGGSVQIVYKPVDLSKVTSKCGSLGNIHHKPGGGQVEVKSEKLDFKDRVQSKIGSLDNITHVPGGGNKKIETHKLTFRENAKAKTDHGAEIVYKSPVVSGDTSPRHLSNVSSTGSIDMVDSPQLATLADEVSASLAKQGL

[4] = molecular target: Microtubule-associated protein tau (Homo sapiens) (UniProt P10636); assay: Binding affinity to human tau associated NFTs at 100 uM by fluorescence microscopy
[5] = molecular target: Microtubule-associated protein tau (Homo sapiens) (UniProt P10636); assay: Binding affinity to human tau associated NFTs at 1 uM by fluorescence microscopy
[6] = molecular target: Amyloid-beta precursor protein (Homo sapiens) (UniProt P05067); assay: Binding affinity to human amyloid-beta plaques at 100 uM by fluorescence microscopy
[7] = test system: Brain; assay: Biodistribution in Wistar rat brain at 50 ug, iv after 2 mins by […] analysis; format: ADME, organism-based; conditions: in vivo
[8] = test system: Brain; assay: Biodistribution in Wistar rat brain at 50 ug, iv after 10 mins by […] analysis; format: ADME, organism-based; conditions: in vivo
[9] = test system: Brain; assay: Ratio of clearance in Wistar rat brain at 50 ug after 2 mins to clearance in Wistar rat brain at 50 ug after 30 mins; format: ADME, tissue-based; conditions: in vivo
[10] = test system: Brain; assay: Biodistribution in Wistar rat brain at 50 ug, iv after 60 mins by […] analysis; format: ADME, organism-based; conditions: in vivo, 1 h
[11] = test system: Brain; assay: Biodistribution in Wistar rat brain at 50 ug, iv after 30 mins by […] analysis; format: ADME, organism-based; conditions: in vivo, 0.5 h
[12] = test system: Brain; assay: Ratio of clearance in C57B1/6 mouse brain at 2 MBq after 2 mins to clearance in C57B1/6 mouse brain at 2 MBq after 30 mins; format: ADME, tissue-based; conditions: in vivo
[13] = test system: Brain; assay: Biodistribution in C57B1/6 mouse brain at 2 MBq, iv after 30 mins by gamma-counting analysis; format: ADME, organism-based; conditions: in vivo, 0.5 h
[14] = test system: Brain; assay: Biodistribution in C57B1/6 mouse brain at 2 MBq, iv after 2 mins by gamma-counting analysis; format: ADME, organism-based; conditions: in vivo
[15] = test system: Brain; assay: Biodistribution in C57B1/6 mouse brain at 2 MBq, iv after 60 mins by gamma-counting analysis; format: ADME, organism-based; conditions: in vivo, 1 h
[16] = test system: Brain; assay: Biodistribution in C57B1/6 mouse brain at 2 MBq, iv after 10 mins by gamma-counting analysis; format: ADME, organism-based; conditions: in vivo
[17] = tested as the 11C-labelled form

Amyloid-beta precursor protein (Homo sapiens), sequence (P05067 whole entry): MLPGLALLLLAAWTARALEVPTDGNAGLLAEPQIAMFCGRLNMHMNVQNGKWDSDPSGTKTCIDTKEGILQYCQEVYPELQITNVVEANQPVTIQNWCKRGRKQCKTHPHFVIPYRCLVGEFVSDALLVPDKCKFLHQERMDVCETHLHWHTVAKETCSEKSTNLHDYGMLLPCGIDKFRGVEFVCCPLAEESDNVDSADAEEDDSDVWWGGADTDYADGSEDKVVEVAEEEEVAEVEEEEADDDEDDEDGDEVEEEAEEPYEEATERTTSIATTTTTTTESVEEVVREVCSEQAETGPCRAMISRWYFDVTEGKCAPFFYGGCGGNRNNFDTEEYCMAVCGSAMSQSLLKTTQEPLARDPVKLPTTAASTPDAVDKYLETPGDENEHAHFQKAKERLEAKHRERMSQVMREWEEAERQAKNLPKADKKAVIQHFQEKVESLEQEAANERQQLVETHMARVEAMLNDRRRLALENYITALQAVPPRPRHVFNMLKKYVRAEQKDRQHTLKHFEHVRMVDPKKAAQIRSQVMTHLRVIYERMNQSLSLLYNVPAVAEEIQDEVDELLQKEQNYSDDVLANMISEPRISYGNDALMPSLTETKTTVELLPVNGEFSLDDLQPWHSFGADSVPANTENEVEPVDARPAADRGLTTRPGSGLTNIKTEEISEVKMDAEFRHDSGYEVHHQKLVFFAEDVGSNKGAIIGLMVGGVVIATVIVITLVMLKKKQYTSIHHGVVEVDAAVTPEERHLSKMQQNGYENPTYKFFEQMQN

Row | Structure (SMILES) | Activity [1] | Activity [3] | Activity [4] | Activity [5] | Activity [6] | other results
1 | CNc1ccc(-c2nc3ccc(O)cc3s2)cc1 | – | – | – | – | – | Activity [1, 17]: Active; Activity [2, 17]: Active; Activity [3, 17]: Active; Activity [4, 17]: Active; Activity [5, 17]: inactive; Activity [6, 17]: Active
2 | CC(=C(C#N)C#N)c1ccc2cc(N(C)CCF)ccc2c1 | Active | Active | Active | Active | Active | Activity [2]: Active
3 | CC(C)NC(=O)c1nn(-c2ccc(OCCCF)cc2)c(=O)c2c(N)scc12 | – | – | inactive | – | inactive | –
4 | CC(C)NC(=O)c1nn(-c2ccc(OCCF)cc2)c(=O)c2c(NC(=O)OC(C)(C)C)scc12 | – | – | inactive | – | inactive | –
5 | CC(C)NC(=O)c1nn(-c2ccc(OCCC[18F])cc2)c(=O)c2c(N)scc12 | – | – | – | – | – | Ratio [12]: 2.8; Drug uptake [13]: 3.46%; Drug uptake [14]: 9.84%; Drug uptake [15]: 1.51%; Drug uptake [16]: 5.77%
6 | CC(C)NC(=O)c1nn(-c2ccc(OCC[18F])cc2)c(=O)c2c(N)scc12 | – | – | – | – | – | Ratio [12]: 2.3; Drug uptake [13]: 2.83%; Drug uptake [14]: 6.5%; Drug uptake [15]: 2.35%; Drug uptake [16]: 3.26%
7 | CC(C)(C)OC(=O)c1nn(-c2ccc(OCCF)cc2)c(=O)c2c(N)scc12 | – | – | inactive | – | inactive | –
8 | CC(C)NC(=O)c1nn(-c2ccc(OCC(O)CF)cc2)c(=O)c2c(N)scc12 (configuration not stated) | – | – | inactive | – | inactive | –

More lines, main results first:

Row | Activity [1] | Activity [3] | Activity [4] | Activity [5] | Activity [6] | Structure (SMILES) | other results
9 | inactive | Active | Active | inactive | Active | CC(C)NC(=O)c1nn(-c2ccc([N+](=O)[O-])cc2)c(=O)c2c(N)scc12 | –
10 | Active | Active | Active | Active | Active | CC(C)NC(=O)c1nn(-c2ccc(OCCF)cc2)c(=O)c2c(N)scc12 | Activity [2]: inactive; Drug uptake [7]: 0.28%; Drug uptake [8]: 0.081%; Ratio [9]: 13.3; Drug uptake [10]: 0.011%; Drug uptake [11]: 0.021%
11 | inactive | inactive | Active | inactive | Active | CC(C)NC(=O)c1nn(-c2ccc(F)cc2)c(=O)c2c(N)scc12 | Activity [2]: inactive
